Key:
[1] = molecular target: T1, GST-human KRas166 (G12V) GPPNHP (Homo sapiens, UniProt P01116, G12V); assay: KRas small-molecule screening by SPR (Biacore T200); type: binding; conditions: compound 100 uM, 5% DMSO buffer; immobilised GST-KRas166 (G12V) GPPNHP
T1 construct: made in house; host or cells: E. coli C41(DE3)
In short: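 GST-KRas166 G12V loaded with GPPNHP, captured on anti-GST CM5 chip at 10,000–15,000 RU, GST reference channel. Compounds run at 100 uM in buffer with 100 mM NaCl, 5 mM MgCl2, 5% DMSO, with DMSO solvent correction; Rmax for 1:1 binding taken as 63 RU.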

[2] = tested on: H358 cells (ATCC CRL-5807); assay: Cell viability assay 1 (CellTiter-Glo), H358 cells; type: cell-based; conditions: Homo sapiens, NCI-H358, 48 h, first value of the cell, read-out: Cell Viability H358 (concentration that decreases cell viability by 50%)
Procedure: (§1) Cells (A549 ATCC CCL-185) are cultured in Dulbecco's Modified Eagle's Medium plus 10% foetal calf serum and 2 mM L-glutamine at 37° C., 5% CO2. Cells are plated onto white clear bottom 96-well plates (5000 cells/well in 200 μl media) and left to adhere overnight at 37° C., 5% CO2. Next day, test compound (1 μl at 200× concentration in 100% DMSO) is added to give final test compound concentration 1× in 0.5% DMSO. After 48 h of incubation at 37° C., 5% CO2, 20 μl CellTiter-Glo reagent (Promega G7572) is added into each well. Plates are incubated at room temperature with shaking for 30 min and then luminescence is read using a PheraStar plate reader. The concentration of compounds that decrease cell viability by 50% is calculated from dose response curves generated using Dotmatics data analysis software.
In the H358 cell assay, cells (ATCC CRL-5807) are cultured in RPMI-1640 medium plus 10% foetal calf serum and 2 mM L-glutamine at 37° C., 5% CO2.

[3] = tested on: DLD1 cells (ATCC CCL-221); assay: Cell viability assay 1 (CellTiter-Glo), DLD1 cells; type: cell-based; conditions: Homo sapiens, DLD-1 cells, 48 h, second value of the cell, read-out: Cell Viability DLD-1 (concentration that decreases cell viability by 50%)
Procedure: as §1
In the DLD1 cell assay, cells (ATCC CCL-221) are cultured in RPMI-1640 medium plus 10% foetal calf serum and 2 mM L-glutamine at 37° C., 5% CO2.

Structure (SMILES)	SPR Response Units [1]	IC50 [2]	IC50 [3]
COc1nc(-c2cccc3c2OCCO3)ccc1Nc1ccc(CN(C)C)cn1 [Example 57, [6-(2,3-Dihydro-benzo[1,4]dioxin-5-yl)-2-methoxy-pyridin-3-yl]-(5-dimethylaminomethyl-pyridin-2-yl)-amine]	77 Response Units	29 µM	20.2 µM
COc1nc(-c2cccc3c2OC(CNC(=O)C2CCOCC2)CO3)ccc1Nc1ccc(CNCc2ccncc2)cc1 (stereo not drawn) [Example 119, Tetrahydro-pyran-4-carboxylic acid {8-[6-methoxy-5-(4-{[(pyridin-4-ylmethyl)-amino]-methyl}-phenylamino)-pyridin-2-yl]-2,3-dihydro-benzo[1,4]dioxin-2-ylmethyl}-amide]	349 Response Units	10 µM	11.2 µM
COc1nc(-c2cccc3c2OCCO3)ccc1Nc1cccc(CN2CCN(Cc3cn[nH]c3)CC2)c1 [Example 208, [6-(2,3-Dihydro-benzo[1,4]dioxin-5-yl)-2-methoxy-pyridin-3-yl]-{3-[4-(1H-pyrazol-4-ylmethyl)-piperazin-1-ylmethyl]-phenyl}-amine]	1266 Response Units	17.4 µM	5.8 µM
COc1cccc(-c2cccc3c2OC(CNC(=O)c2ccc(OCCN(C)C)cc2)CO3)n1 (stereo not drawn) [Example 39, 4-(2-Dimethylamino-ethoxy)-N-[8-(6-methoxy-pyridin-2-yl)-2,3-dihydro-benzo[1,4]dioxin-2-ylmethyl]-benzamide]	127 Response Units	79 µM	5 µM
COc1nc(-c2cccc3c2O[C@@H](CNC(=O)C2CCOCC2)CO3)ccc1Nc1cccc(CN(C)C)c1 [Example 69]	128 Response Units	21 µM	21.5 µM
COc1cccc(-c2cccc3c2OC(CNCc2ccc(OCCN(C)C)cc2)CO3)n1 (stereo not drawn) [Example 26, {2-[4-({[8-(6-Methoxy-pyridin-2-yl)-2,3-dihydro-benzo[1,4]dioxin-2-ylmethyl]-amino}-methyl)-phenoxy]-ethyl}-dimethyl-amine]	53 Response Units	95 µM	4 µM
COc1nc(-c2cccc3c2OCCO3)ccc1Nc1cccc(C(=O)NCC2CCN(C)CC2)c1 [Example 163, 3-[6-(2,3-Dihydro-benzo[1,4]dioxin-5-yl)-2-methoxy-pyridin-3-ylamino]-N-(1-methyl-piperidin-4-ylmethyl)-benzamide]	192 Response Units	8.9 µM	0.74 µM
COc1nc(-c2cccc3c2OCCO3)ccc1Nc1cccc(C(=O)NCC2CNC(=O)C2)c1 (stereo not drawn) [Example 166, 3-[6-(2,3-Dihydro-benzo[1,4]dioxin-5-yl)-2-methoxy-pyridin-3-ylamino]-N-(5-oxo-pyrrolidin-3-ylmethyl)-benzamide]	133 Response Units	20.5 µM	8.3 µM
COc1nc(-c2cccc3c2OCCO3)ccc1Nc1cccc(C(=O)NCC2CCN(Cc3ccccc3)CC2)c1 [Example 181, N-(1-Benzyl-piperidin-4-ylmethyl)-3-[6-(2,3-dihydro-benzo[1,4]dioxin-5-yl)-2-methoxy-pyridin-3-ylamino]-benzamide]	149 Response Units	4.3 µM	1.8 µM
COc1nc(-c2cccc3c2OCCO3)ccc1Nc1cccc(CNC(=O)c2ccncc2)c1 [Example 80, N-{3-[6-(2,3-Dihydro-benzo[1,4]dioxin-5-yl)-2-methoxy-pyridin-3-ylamino]-benzyl}-isonicotinamide]	51 Response Units	16.5 µM	13.4 µM
COc1cc(-c2cccc3c2OCCO3)ccc1Nc1ccc(CNCC2COCCN2)cc1 (stereo not drawn) [Example 132, [4-(2,3-Dihydro-benzo[1,4]dioxin-5-yl)-2-methoxy-phenyl]-(4-{[(morpholin-3-ylmethyl)-amino]-methyl}-phenyl)-amine]	204 Response Units	12.7 µM	11 µM
COc1nc(-c2cccc3c2OCCO3)ccc1Nc1cccc(CNCC2CCN(C)CC2)c1 [Example 189, [6-(2,3-Dihydro-benzo[1,4]dioxin-5-yl)-2-methoxy-pyridin-3-yl]-(3-{[(1-methyl-piperidin-4-ylmethyl)-amino]-methyl}-phenyl)-amine]	552 Response Units	44.9 µM	1.4 µM
COc1nc(-c2cccc3c2OCCO3)ccc1Nc1ccc(C(=O)NCC2CCC(=O)NC2)cc1 (stereo not drawn) [Example 159]	122 Response Units	24.7 µM	14.1 µM
COc1nc(-c2cccc3c2OCCO3)ccc1Nc1ccc(C(=O)NCC2CCNC(=O)C2)cc1 (stereo not drawn) [Example 196, 4-[6-(2,3-Dihydro-benzo[1,4]dioxin-5-yl)-2-methoxy-pyridin-3-ylamino]-N-(2-oxo-piperidin-4-ylmethyl)-benzamide]	194 Response Units	30.6 µM	7.2 µM
COc1nc(-c2cccc3c2OCCO3)ccc1Nc1ccc(CNCC2CCN(Cc3ccccc3)CC2)cc1 [Example 187, (4-{[(1-Benzyl-piperidin-4-ylmethyl)-amino]-methyl}-phenyl)-[6-(2,3-dihydro-benzo[1,4]dioxin-5-yl)-2-methoxy-pyridin-3-yl]-amine]	916 Response Units	25.9 µM	2.2 µM
COc1nc(-c2cccc3c2OCCO3)ccc1Nc1ccc(C(=O)NCC2CCN(C)CC2)cc1 [Example 158, 4-[6-(2,3-Dihydro-benzo[1,4]dioxin-5-yl)-2-methoxy-pyridin-3-ylamino]-N-(1-methyl-piperidin-4-ylmethyl)-benzamide]	269 Response Units	20.6 µM	3.5 µM
COc1nc(-c2cccc3c2OCCO3)ccc1Nc1cccc(C(=O)NCc2cccc(C)n2)c1 [Example 162, 3-[6-(2,3-Dihydro-benzo[1,4]dioxin-5-yl)-2-methoxy-pyridin-3-ylamino]-N-(6-methyl-pyridin-2-ylmethyl)-benzamide]	36 Response Units	27.9 µM	3.9 µM
COc1nc(-c2cccc3c2OCCO3)ccc1Nc1cccc(CC(=O)NC2CCNC(=O)C2)c1 (stereo not drawn) [Example 205, 2-{3-[6-(2,3-Dihydro-benzo[1,4]dioxin-5-yl)-2-methoxy-pyridin-3-ylamino]-phenyl}-N-(2-oxo-piperidin-4-yl)-acetamide]	142 Response Units	12.2 µM	51.6 µM
COc1nc(-c2cccc3c2OCCO3)ccc1Nc1ccc(C(=O)NCc2cccnc2)cc1 [Example 175, 4-[6-(2,3-Dihydro-benzo[1,4]dioxin-5-yl)-2-methoxy-pyridin-3-ylamino]-N-pyridin-3-ylmethyl-benzamide]	63 Response Units	15.8 µM	8.2 µM
CN(C)Cc1cccc(Nc2ccc(-c3cccc4c3OCCO4)[nH]c2=O)c1 [Example 153, 6-(2,3-Dihydro-benzo[1,4]dioxin-5-yl)-3-(3-dimethylaminomethyl-phenylamino)-1H-pyridin-2-one]	90 Response Units	0.6 µM	0.14 µM
COc1nc(-c2cccc3c2OCCO3)ccc1Nc1ccc(CNC[C@@H]2COCCN2)cc1 [Example 128, [6-(2,3-Dihydro-benzo[1,4]dioxin-5-yl)-2-methoxy-pyridin-3-yl]-(4-{[((R)-1-morpholin-3-ylmethyl)-amino]-methyl}-phenyl)-amine]	99 Response Units	6.7 µM	9.5 µM
c1cc2c(c(-c3cnc(Nc4ccc(CNCC5COCCN5)cc4)cn3)c1)OCCO2 (stereo not drawn) [Example 155, [5-(2,3-Dihydro-benzo[1,4]dioxin-5-yl)-pyrazin-2-yl]-(4-{[(morpholin-3-ylmethyl)-amino]-methyl}-phenyl)-amine]	71 Response Units	12.7 µM	0.56 µM
COc1nc(-c2cccc3c2OCCO3)ccc1Nc1cccc(C2CCC(=O)N2)c1 (stereo not drawn) [Example 62, 5-{3-[6-(2,3-Dihydro-benzo[1,4]dioxin-5-yl)-2-methoxy-pyridin-3-ylamino]-phenyl}-pyrrolidin-2-one]	72 Response Units	8.6 µM	13.7 µM
COc1nc(-c2cccc3c2OCCO3)ccc1Nc1cccc(CNCC2CCN(Cc3ccccc3)CC2)c1 [Example 190, (3-{[(1-Benzyl-piperidin-4-ylmethyl)-amino]-methyl}-phenyl)-[6-(2,3-dihydro-benzo[1,4]dioxin-5-yl)-2-methoxy-pyridin-3-yl]-amine]	665 Response Units	8.6 µM	1.6 µM

Reference: patent US12024506B2, “Compounds” (Oxford University Innovation Limited, priority 2018, dated 2024)
